What is called melting point is the temperature, or range, at which the solid turns liquid.

Structures are written as SMILES.

Here are results for 14 compounds from patent publication US6713474B2, “Pyrrolopyrimidines as therapeutic agents” (Abbott GmbH & Co. KG, priority 1998, dated 2004).

Consider `Nc1ncnc2c1c(-c1ccc(Oc3ccccc3)cc1)cn2S(=O)(=O)C1CCCC1` [Example 168, 7-Cyclopentanesulphonyl-5-(4-phenoxyphenyl)-7H-pyrrolo[2,3-d]pyrimidin-4-ylamine], for which the melting point fell in the range of 188 to 188.5 °C.

`Nc1ncnc2c1c(-c1ccc(Oc3ccccc3)cc1)cn2CCCCCCCCN1C(=O)c2ccccc2C1=O` [Example 169, 5-(4-Phenoxyphenyl)-7-(8-phthalimidooctyl)-7H-pyrrolo[2,3-d]pyrimidin-4-ylamine]: the melting point was in the range of 85 to 86 °C.

Compound `Nc1ncnc2c1c(-c1ccc(Oc3ccccc3)cc1)cn2CCN1C(=O)c2ccccc2C1=O` [Example 171, N-{2-[4-Amino-5-(4-phenoxyphenyl)-7H-pyrrolo[2,3-d]pyrimidin-7-yl]ethyl}phthalimide] returned a melting point of 111 to 112 °C.

Compound `CC(C)C(=O)n1cc(-c2ccc(Oc3ccccc3)cc2)c2c(N)ncnc21` [Example 173, 7-Isobutyryl-5-(4-phenoxyphenyl)-7H-pyrrolo[2,3-d]pyrimidin-4-ylamine] registered a melting point of 160.5 to 161 °C.

Turning to `Nc1ncnc2c1c(-c1ccc(Oc3ccccc3)cc1)cn2C1CCC2(CC1)OCCO2` [Example 174, 5-(4-Phenoxyphenyl)-7-(1,4-dioxaspiro[4,5]decan-8-yl)-7H-pyrrolo[2,3-d]pyrimidin-4-ylamine], the melting point was in the range of 193 to 194 °C.

As for `Nc1ncnc2c1c(-c1ccc(Oc3ccccc3)cc1)cn2C1CCC(=O)CC1` [Example 175, 4-[4-Amino-5-(4-phenoxyphenyl)-7H-pyrrolo[2,3-d]pyrimidin-7-yl]cyclohexanone], the melting point lay in the range of 252 to 254 °C.

`N#Cc1cccnc1-n1cc(-c2ccc(Oc3ccccc3)cc2)c2c(N)ncnc21` [Example 180, 2-[4-Amino-5-(4-phenoxyphenyl)-7H-pyrrolo[2,3-d]pyrimidin-7-yl]pyridine-3-carbonitrile]: the melting point lay within 242 to 242.5 °C.

On to `Nc1ncnc2c1c(-c1ccc(Oc3ccccc3)cc1)cn2[C@H]1CC[C@@H](N2CCCC2)CC1` [Example 193, cis-5-(4-Phenoxyphenyl)-7-(4-pyrrolidinocyclohex-1-yl)-7H-pyrrolo[2,3-d]pyrimidin-4-ylamine], for which the melting point fell in the range of 101 to 104 °C.

The compound `CN(C)[C@H]1CC[C@H](n2cc(-c3ccc(Oc4ccccc4)cc3)c3c(N)ncnc32)CC1` [Example 196, Trans-7-(4-Dimethylaminocyclohexyl)-5-(4-phenoxyphenyl)-7H-pyrrolo[2,3-d]pyrimidin-4-ylamine] gave a melting point of 207.5 to 210 °C.

Regarding `CN(C)[C@H]1CC[C@@H](n2cc(-c3ccc(Oc4ccccc4)cc3)c3c(N)ncnc32)CC1` [Example 196, cis-7-(4-Dimethylaminocyclohexyl)-5-(4-phenoxyphenyl)-7H-pyrrolo[2,3-d]pyrimidin-4-ylamine], the melting point is 180 to 182 °C.

For the compound `CC(C)(C)OC(=O)N1CCC(n2cc(-c3ccc(Oc4ccccc4)cc3)c3c(N)ncnc32)CC1` [Example 200, tert-Butyl 4-[4-Amino-5-(4-phenoxyphenyl)-7H-pyrrolo[2,3-d]pyrimidin-7-yl]-1-piperidinecarboxylate], the melting point was 168.5 to 169.5 °C.

As to `CC(C)(C)OC(=O)N1CCC(n2cc(-c3ccc(Oc4ccccc4)cc3)c3c(N)ncnc32)C1` (centres unmarked) [Example 203, tert-Butyl 3-[4-Amino-5-(4-phenoxyphenyl)-7H-pyrrolo[2,3-d]pyrimidin-7-yl]-1-pyrrolidinecarboxylate], the melting point lay within 168 to 170 °C.

Compound `Nc1ncnc2c1c(-c1ccc(Oc3ccccc3)cc1)cn2C1CCNC1` (centres unmarked) [Example 205, 5-(4-Phenoxyphenyl)-7-(3-pyrrolidinyl) -7H-pyrrolo[2,3-d]pyrimidin-4-ylamine] displayed a melting point of 182 to 184 °C.

`Nc1ncnc2c1c(-c1ccc(Oc3ccccc3)cc1)cn2C1CCC(O)CC1` (centres unmarked) [Example 243, 4-[4-Amino-5-(4-phenoxyphenyl)-7H-pyrrolo[2,3-d]pyrimidin-7-yl]cyclohexanol]: the melting point lay within 199 to 200 °C.
